Measured values published in the NIST ThermoML archive (doi:10.1016/j.fluid.2010.10.028).
± gives the expanded uncertainty stated by the source.

Assay: xn = mol fraction of the nth substance listed
Settings: Liquid, Vibrating tube method

CC(C)=O [acetone] + CCCCCCC
Settings	mass density [kg/m3]
407.22 K, 24840 kPa, x1 = 0.492	637.87 ± 1.3
407.22 K, 24850 kPa, x1 = 0.611	645.53 ± 1.3
407.22 K, 24850 kPa, x1 = 0.801	663.77 ± 1.3
407.22 K, 29850 kPa, x1 = 0.492	645.2 ± 1.3
407.22 K, 29860 kPa, x1 = 0.801	671.47 ± 1.3
407.22 K, 29870 kPa, x1 = 0.611	653.05 ± 1.3
407.22 K, 34850 kPa, x1 = 0.801	678.52 ± 1.3
407.22 K, 34860 kPa, x1 = 0.611	659.9 ± 1.3
407.22 K, 39850 kPa, x1 = 0.801	685.05 ± 1.3
407.22 K, 39860 kPa, x1 = 0.611	666.23 ± 1.4
407.22 K, 44860 kPa, x1 = 0.801	691.11 ± 1.4
407.22 K, 44870 kPa, x1 = 0.611	672.1 ± 1.4
407.22 K, 49870 kPa, x1 = 0.611	677.58 ± 1.4
407.22 K, 54850 kPa, x1 = 0.611	682.71 ± 1.4
407.22 K, 59830 kPa, x1 = 0.611	687.58 ± 1.4
407.22 K, 59840 kPa, x1 = 0.492	679.01 ± 1.5
407.22 K, 59840 kPa, x1 = 0.801	707.14 ± 1.4
407.22 K, 64930 kPa, x1 = 0.611	692.3 ± 1.5
407.22 K, 69830 kPa, x1 = 0.801	716.45 ± 1.5
407.22 K, 69920 kPa, x1 = 0.611	696.69 ± 1.5
407.22 K, 74910 kPa, x1 = 0.611	700.88 ± 1.5
407.22 K, 74920 kPa, x1 = 0.801	720.89 ± 1.5
407.22 K, 79900 kPa, x1 = 0.611	704.88 ± 1.5
407.22 K, 79920 kPa, x1 = 0.801	725.05 ± 1.5
407.22 K, 84880 kPa, x1 = 0.611	708.71 ± 1.6
407.22 K, 84890 kPa, x1 = 0.801	729.04 ± 1.5
407.22 K, 89850 kPa, x1 = 0.611	712.41 ± 1.6
407.22 K, 89860 kPa, x1 = 0.492	703.26 ± 1.6
407.22 K, 89890 kPa, x1 = 0.801	732.88 ± 1.6
407.22 K, 94740 kPa, x1 = 0.4	750.92 ± 1.6
407.22 K, 94740 kPa, x1 = 0.8992	750.92 ± 1.5
407.22 K, 94840 kPa, x1 = 0.611	715.96 ± 1.6
407.22 K, 94870 kPa, x1 = 0.801	736.56 ± 1.6
407.22 K, 99720 kPa, x1 = 0.4	754.58 ± 1.6
407.22 K, 99720 kPa, x1 = 0.8992	754.58 ± 1.6
407.22 K, 99820 kPa, x1 = 0.611	719.38 ± 1.6
407.22 K, 99840 kPa, x1 = 0.801	740.12 ± 1.6
407.22 K, 104690 kPa, x1 = 0.4	758.09 ± 1.6
407.22 K, 104690 kPa, x1 = 0.8992	758.09 ± 1.6
407.22 K, 104790 kPa, x1 = 0.611	722.68 ± 1.7
407.22 K, 104820 kPa, x1 = 0.801	743.55 ± 1.6
407.22 K, 109650 kPa, x1 = 0.4	761.5 ± 1.6
407.22 K, 109650 kPa, x1 = 0.8992	761.5 ± 1.6
407.22 K, 109770 kPa, x1 = 0.492	716.44 ± 1.7
407.22 K, 109790 kPa, x1 = 0.801	746.89 ± 1.6
407.22 K, 109860 kPa, x1 = 0.611	725.93 ± 1.7
407.22 K, 114620 kPa, x1 = 0.4	764.8 ± 1.6
407.22 K, 114620 kPa, x1 = 0.8992	764.8 ± 1.6
407.22 K, 114770 kPa, x1 = 0.801	750.12 ± 1.6
407.22 K, 114860 kPa, x1 = 0.492	719.55 ± 1.8
407.22 K, 114870 kPa, x1 = 0.611	729.06 ± 1.7
407.22 K, 119590 kPa, x1 = 0.4	768 ± 1.6
407.22 K, 119590 kPa, x1 = 0.8992	768 ± 1.6
407.22 K, 119840 kPa, x1 = 0.492	722.47 ± 1.8
407.22 K, 119840 kPa, x1 = 0.801	753.32 ± 1.7
407.22 K, 119850 kPa, x1 = 0.611	732.05 ± 1.7
407.22 K, 124560 kPa, x1 = 0.4	771.11 ± 1.7
407.22 K, 124560 kPa, x1 = 0.8992	771.11 ± 1.6
407.22 K, 124850 kPa, x1 = 0.492	725.34 ± 1.8
407.22 K, 124850 kPa, x1 = 0.611	735.01 ± 1.8
407.22 K, 124850 kPa, x1 = 0.801	756.37 ± 1.7
407.22 K, 129820 kPa, x1 = 0.4	774.33 ± 1.7
407.22 K, 129820 kPa, x1 = 0.8992	774.33 ± 1.7
407.22 K, 129840 kPa, x1 = 0.611	737.84 ± 1.8
407.22 K, 129840 kPa, x1 = 0.801	759.34 ± 1.7
407.23 K, 4820 kPa, x1 = 0.7024	611.92 ± 1.2
407.23 K, 9850 kPa, x1 = 0.492	610.28 ± 1.2
407.23 K, 14860 kPa, x1 = 0.492	620.71 ± 1.3
407.23 K, 19860 kPa, x1 = 0.492	629.81 ± 1.3
407.23 K, 24820 kPa, x1 = 0.7024	653.51 ± 1.3
407.23 K, 29820 kPa, x1 = 0.7024	661.13 ± 1.3
407.23 K, 34840 kPa, x1 = 0.492	651.87 ± 1.3
407.23 K, 39860 kPa, x1 = 0.492	658.08 ± 1.4
407.23 K, 44850 kPa, x1 = 0.492	663.81 ± 1.4
407.23 K, 49840 kPa, x1 = 0.801	696.75 ± 1.4
407.23 K, 49850 kPa, x1 = 0.492	669.19 ± 1.4
407.23 K, 54850 kPa, x1 = 0.801	702.09 ± 1.4
407.23 K, 54860 kPa, x1 = 0.492	674.25 ± 1.4
407.23 K, 64830 kPa, x1 = 0.492	683.5 ± 1.5
407.23 K, 64830 kPa, x1 = 0.801	711.9 ± 1.4
407.23 K, 69930 kPa, x1 = 0.492	687.88 ± 1.5
407.23 K, 74910 kPa, x1 = 0.492	691.98 ± 1.5
407.23 K, 79890 kPa, x1 = 0.492	695.9 ± 1.6
407.23 K, 84870 kPa, x1 = 0.492	699.66 ± 1.6
407.23 K, 94840 kPa, x1 = 0.492	706.73 ± 1.6
407.23 K, 99820 kPa, x1 = 0.492	710.09 ± 1.7
407.23 K, 104790 kPa, x1 = 0.492	713.3 ± 1.7
407.23 K, 129830 kPa, x1 = 0.492	728.11 ± 1.8
407.24 K, 1620 kPa, x1 = 0.7024	602.1 ± 1.2
407.24 K, 9830 kPa, x1 = 0.7024	624.8 ± 1.2
407.24 K, 14840 kPa, x1 = 0.7024	635.66 ± 1.2
